Results: ChEMBL document CHEMBL1201862, “PubChem BioAssay data set” (2004)
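Step 1: Grow cells in 96-well plates. Step 2: Expose to compound for 48 hours at 5 concentrations. Step 3: Interpolate endpoints linearly; if unreached, use highest concentration. At the GI50, growth is halved.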 Active and inactive are the calls of the source. Rule as the data show it: active = GI50 up to about 1.1 µM and inactive = higher.

What was measured:
Test in all cases: DTP human tumour cell line panel, 48 h
[1] = test system: KM12
[2] = test system: LOX IMVI
[3] = test system: NCI/ADR-RES
[4] = test system: MOLT-4
[5] = test system: SK-OV-3
[6] = test system: MDA-MB-435
[7] = test system: U-251
[8] = test system: SN12C
[9] = test system: NCI-H23
[10] = test system: SNB-75
[11] = test system: SK-MEL-5
[12] = test system: NCI-H460
[13] = test system: OVCAR-4
[14] = test system: UO-31
[15] = test system: MDA-MB-231
[16] = test system: 786-0
[17] = test system: MCF7
[18] = test system: SR
[19] = test system: SW-620
[20] = test system: NCI-H226
[21] = test system: SK-MEL-2
[22] = test system: HT-29
[23] = test system: HOP-62
[24] = test system: TK-10
[25] = test system: M14
[26] = test system: HOP-92
[27] = test system: UACC-257
[28] = test system: BT-549
[29] = test system: Hs-578T
[30] = test system: OVCAR-8
[31] = test system: A549
[32] = test system: RPMI-8226
[33] = test system: OVCAR-5
[34] = test system: HCT-116
[35] = test system: NCI-H522
[36] = test system: EKVX
[37] = test system: CAKI-1
[38] = test system: T47D
[39] = test system: IGROV-1
[40] = test system: CCRF-CEM
[41] = test system: SK-MEL-28
[42] = test system: HL-60
[43] = test system: SF-295
[44] = test system: SF-268
[45] = test system: DU-145
[46] = test system: PC-3
[47] = test system: K562
[48] = test system: UACC-62
[49] = test system: COLO 205
[50] = test system: SNB-19
[51] = test system: HCT-15
[52] = test system: ACHN
[53] = test system: SF-539
[54] = test system: Malme-3M
[55] = test system: MDA-N
[56] = test system: OVCAR-3
[57] = test system: RXF 393
[58] = test system: HCC 2998
[59] = test system: A498

CCCCCCNC(=O)c1cnc(Cl)cn1
GI50 [1]: 15.9 µM (inactive)
GI50 [2]: 14.6 µM (inactive)
GI50 [3]: 15.6 µM (inactive)
GI50 [4]: 4.82 µM (inactive)
GI50 [5]: 22.9 µM (inactive)
GI50 [6]: 15.6 µM (inactive)
GI50 [7]: 11.5 µM (inactive)
GI50 [8]: 13.3 µM (inactive)
GI50 [9]: 11.1 µM (inactive)
GI50 [10]: 21 µM (inactive)
GI50 [11]: 16.8 µM (inactive)
GI50 [12]: 19.3 µM (inactive)
GI50 [13]: 20.6 µM (inactive)
GI50 [14]: 1.85 µM (inactive)
GI50 [15]: 16.7 µM (inactive)
GI50 [16]: 26.1 µM (inactive)
GI50 [17]: 5.15 µM (inactive)
GI50 [18]: 4.3 µM (inactive)
GI50 [19]: 15.1 µM (inactive)
GI50 [20]: 10 µM (inactive)
GI50 [21]: 14.7 µM (inactive)
GI50 [22]: 33.1 µM (inactive)
GI50 [23]: 16.1 µM (inactive)
GI50 [24]: 22.4 µM (inactive)
GI50 [25]: 13.2 µM (inactive)
GI50 [26]: 3.15 µM (inactive)
GI50 [27]: 14.3 µM (inactive)
GI50 [28]: 26.2 µM (inactive)
GI50 [29]: 14.2 µM (inactive)
GI50 [30]: 12.4 µM (inactive)
GI50 [31]: 13.8 µM (inactive)
GI50 [32]: 29 µM (inactive)
GI50 [33]: 17.3 µM (inactive)
GI50 [34]: 17.1 µM (inactive)
GI50 [35]: 0.206 µM (active)
GI50 [36]: 5.93 µM (inactive)
GI50 [37]: 1.17 µM (inactive)
GI50 [38]: 20 µM (inactive)
GI50 [39]: 10.5 µM (inactive)
GI50 [40]: 13.7 µM (inactive)
GI50 [41]: 24 µM (inactive)
GI50 [42]: 23.8 µM (inactive)
GI50 [43]: 18.1 µM (inactive)
GI50 [44]: 14.3 µM (inactive)
GI50 [45]: 16.1 µM (inactive)
GI50 [46]: 5.51 µM (inactive)
GI50 [47]: 13 µM (inactive)
GI50 [48]: 17.2 µM (inactive)
GI50 [49]: 18.4 µM (inactive)
GI50 [50]: 17.5 µM (inactive)
GI50 [51]: 2.55 µM
GI50 [52]: 2.36 µM (inactive)
GI50 [53]: 17.6 µM (inactive)
GI50 [54]: 16.7 µM (inactive)

CC(=O)Nc1ccc(S(=O)(=O)Nc2nc(-c3ccc(Cl)cc3)cc(N3N=C(c4ccc(Br)cc4)CC3c3ccccc3)n2)cc1 (centres undefined)
GI50 [1]: 10.7 µM (inactive)
GI50 [2]: 15.9 µM (inactive)
GI50 [3]: 17.1 µM (inactive)
GI50 [4]: 17 µM (inactive)
GI50 [5]: 15.8 µM (inactive)
GI50 [6]: 7.45 µM (inactive)
GI50 [7]: 16.8 µM (inactive)
GI50 [8]: 16 µM (inactive)
GI50 [9]: 16.6 µM (inactive)
GI50 [12]: 16.9 µM (inactive)
GI50 [13]: 15 µM (inactive)
GI50 [14]: 15.4 µM (inactive)
GI50 [15]: 13.9 µM (inactive)
GI50 [16]: 18.8 µM (inactive)
GI50 [55]: 5.51 µM (inactive)
GI50 [17]: 2.87 µM (inactive)
GI50 [18]: 16.2 µM (inactive)
GI50 [19]: 20.4 µM (inactive)
GI50 [20]: 12.9 µM (inactive)
GI50 [21]: 14.7 µM (inactive)
GI50 [22]: 15 µM (inactive)
GI50 [23]: 16.3 µM (inactive)
GI50 [24]: 14 µM (inactive)
GI50 [25]: 18.1 µM (inactive)
GI50 [26]: 13.7 µM (inactive)
GI50 [27]: 17.5 µM (inactive)
GI50 [28]: 17.8 µM (inactive)
GI50 [29]: 11.1 µM (inactive)
GI50 [30]: 17.9 µM (inactive)
GI50 [31]: 17.7 µM (inactive)
GI50 [32]: 12.1 µM (inactive)
GI50 [33]: 14.3 µM (inactive)
GI50 [34]: 14.4 µM (inactive)
GI50 [35]: 14.8 µM (inactive)
GI50 [36]: 13.6 µM (inactive)
GI50 [56]: 2.06 µM (inactive)
GI50 [39]: 11.8 µM (inactive)
GI50 [40]: 26.1 µM (inactive)
GI50 [41]: 18.6 µM (inactive)
GI50 [42]: 14.2 µM (inactive)
GI50 [43]: 16.6 µM (inactive)
GI50 [45]: 20.4 µM (inactive)
GI50 [57]: 13.8 µM (inactive)
GI50 [46]: 14 µM (inactive)
GI50 [47]: 7.21 µM (inactive)
GI50 [48]: 12.6 µM (inactive)
GI50 [49]: 14.1 µM (inactive)
GI50 [50]: 16 µM (inactive)
GI50 [51]: 15.7 µM
GI50 [52]: 24.5 µM (inactive)
GI50 [53]: 16.9 µM (inactive)
GI50 [54]: 16.1 µM (inactive)

COc1ccc(Nc2cc(O)nc(O)n2)cc1
GI50 [1]: > 100 µM (inactive)
GI50 [2]: > 100 µM (inactive)
GI50 [58]: > 100 µM (inactive)
GI50 [3]: > 100 µM (inactive)
GI50 [4]: > 100 µM (inactive)
GI50 [6]: > 100 µM (inactive)
GI50 [7]: > 100 µM (inactive)
GI50 [8]: > 100 µM (inactive)
GI50 [9]: > 100 µM (inactive)
GI50 [10]: 84.3 µM (inactive)
GI50 [11]: > 100 µM (inactive)
GI50 [12]: > 100 µM (inactive)
GI50 [13]: > 100 µM (inactive)
GI50 [14]: > 100 µM (inactive)
GI50 [15]: > 100 µM (inactive)
GI50 [16]: > 100 µM (inactive)
GI50 [55]: > 100 µM (inactive)
GI50 [17]: > 100 µM (inactive)
GI50 [18]: > 100 µM (inactive)
GI50 [19]: > 100 µM (inactive)
GI50 [20]: > 100 µM (inactive)
GI50 [22]: > 100 µM (inactive)
GI50 [23]: > 100 µM (inactive)
GI50 [24]: > 100 µM (inactive)
GI50 [25]: > 100 µM (inactive)
GI50 [26]: > 100 µM (inactive)
GI50 [27]: > 100 µM (inactive)
GI50 [28]: > 100 µM (inactive)
GI50 [29]: > 100 µM (inactive)
GI50 [30]: > 100 µM (inactive)
GI50 [59]: > 100 µM (inactive)
GI50 [31]: > 100 µM (inactive)
GI50 [32]: > 100 µM (inactive)
GI50 [33]: > 100 µM (inactive)
GI50 [34]: > 100 µM (inactive)
GI50 [36]: > 100 µM (inactive)
GI50 [56]: > 100 µM (inactive)
GI50 [39]: > 100 µM (inactive)
GI50 [40]: > 100 µM (inactive)
GI50 [41]: > 100 µM (inactive)
GI50 [42]: > 100 µM (inactive)
GI50 [43]: > 100 µM (inactive)
GI50 [44]: > 100 µM (inactive)
GI50 [45]: > 100 µM (inactive)
GI50 [57]: 24.7 µM (inactive)
GI50 [46]: > 100 µM (inactive)
GI50 [47]: > 100 µM (inactive)
GI50 [49]: > 100 µM (inactive)
GI50 [50]: > 100 µM (inactive)
GI50 [51]: > 100 µM
GI50 [52]: > 100 µM (inactive)
GI50 [53]: > 100 µM (inactive)
GI50 [54]: > 100 µM (inactive)
